# Test results from patent EP2423217A1, “Peptide and protein affinity tag from mistic protein” (Forschungsverbund Berlin E.V., priority 2010, dated 2012).
# Where no end group is shown, it is not given here.
# Key:
# [1] = physchem; details: aqueous buffer
# [2] = target: T1, MB peptide (Bacillus subtilis, UniProt Q5BU39); experiment: CD spectroscopy of MB oligomerization at different pH values; type: physicochemical; set-up: made in house; details: for ratio 208 nm / 222 nm: 154 mM NaF; for oligomer state: AUC and CD spectroscopy
# Description: The MB monomer is mostly unfolded (~70% random coil), whereby the MB tetramer forms an α-helix. […] This pH sensitive switchability is reversible and occurs completely and suddenly from pH 6.0 to 5.4.
# • Figure 1: Molecular model of the secondary protein structure of the helical MB peptide. Hydrophobicity of the peptide MB is also indicated by differential after folding into an ideal helix. Hydrophilic groups are indicated with arrows from above, hydrophobic groups from below. (A) The hydrophobic areas in which the binding takes place. (B) View of the backside. • Figure 2: CD spectroscopy of MB at different pH values. Circular ellipticity of 50 µM MB at 208 nm or 222 nm was measured against buffer pH in 10 mM citrate or 10 mM phosphate buffer with 154 mM NaF at 20°C. Citrate buffer was applied for the pH range from pH 6.5 to 4 and phosphate buffer for the pH ranges 1.5 to 4 and 6.5 to 10. MB structure was uninfluenced by buffer type, because CD spectra in citrate buffer were equal to spectra in phosphate buffer in the overlapping pH regions. The wavelengths 208 nm and 222 nm are characteristic for α-helices. […] (A) The snapshots of the same membrane repeatedly hybridised (left) and regenerated (right) show similar results after each of the six repetitions. […] (B) Plot of the normalized median intensities of each spot against number of incubations. • Figure 4: Mutation analysis of the amino acids important in oligomerization. […] The amino acids numeration is shown as small numbers above the wild type letters, the wt sequence can be found in the middle (black frame). Letters listed vertically above the wt sequence intensify the interactions, letters below weaken or abolish. The bigger the letter size the stronger the influence, linear to the distance of the intensity to the wt mean intensity in times of SD, starting with a minimum of ±2 SD. • Figure 5: Summary of the single-point mutation and length analysis of the MB oligomerization (A) Single-point mutations substantially (p<0.05) influencing the oligomerization were grouped and are represented by bars above or below the wild type sequence (black frame).The amino acids numeration is shown as small numbers above the wild type letters. Bars above the wild type sequence signify an enhanced oligomerization and below a weakened or abolished. The bar size reflects the strength of the mutation's influences on the oligomerization. […] Amino acid positions which were especially mutation-susceptible are marked by a + or -. (B) MB was systematically truncated with a step size of two amino acids from either one of the termini or simultaneously both termini. The shortest still with TAMRA-MB oligomerizing truncates are shown in black frames.
# In order to assess the oligomerization properties of MB peptide circular dichroism spectroscopy (CD spectroscopy) was carried out according to standard procedures. The MB tetramerization was triggered by acidic pH values while remaining unchanged in basic conditions. Starting from basic pH 10 down to slightly acidic pH 6 the structure of MB was invariable at constant concentrations. Between pH 6 to 5.4 a rapid and tremendous increase in helicity occurred. Below pH 5.4 the pronounced α-helical MB structure remained constant down to pH 1.5 (see Fig. 2).
# [3] = target: T1, MB peptide; experiment: Temperature dependence of MB peptide tetramerization; type: physicochemical; set-up: made in house
# Description: The tetramerization of MB peptide is however dependent on temperature and the salt concentration of the buffer. In general, the proportion of MB peptide forming a tetramer is reduced with increasing temperature. At approximately 70°C, only monomers of the MB peptide are present. As the salt concentration increases, the tetramerisation increases accordingly at neutral pH values.
# [4] = target: T1, MB peptide; experiment: SPOT hybridization with TAMRA-MB: regeneration and reversibility; type: binding; set-up: made in house; host or cells: chemical SPOT synthesis on membrane (MultiPep synthesizer); details: 25 µM MB in 114 mM phosphate buffer with 50 mM NaF at pH 2.8, over night at 4°C; eight spots
# Description: A SPOT-analysis was carried out in order to assess oligomerization of the MB peptide and its ability to tether molecules. This approach is analogous to that of affinity chromatography, in that a solid phase-bound synthesized MB peptide is used to bind and isolate a molecule of interest that is tagged with the protein affinity tag of the present invention.
# The nitrocellulose membrane which contained the MB peptide was incubated, and thus hybridized, with TAMRA-MB (MB peptide to which the TAMRA colouring agent has been covalently attached). If the spots remained coloured after washing an oligomerisation was judged to have taken place. Solid-phase bound MB peptide was synthesized directly on the membranes. Whatman 50 filter paper (Whatman GmbH, Dassel, Germany) was used for membrane-bound peptide synthesis. SPOT positions with a diameter of 3 mm were defined by treating isolated locations on the membrane with coupling reagents. The membrane bound peptides were assembled by the SPOT synthesizer MultiPep (Intavis Bioanalytical Instruments AG, Köln, Germany) according to standard protocols.
# Spotted membranes were washed and blocked according to standard protocols before hybridization. After rinsing once with incubation buffer membranes were hybridized with TAMRA-MB over night at 4 °C under agitation. Incubation results were documented by scanning the membranes with a HP scanjet at 600 dpi. […]
sequence,measurement,setting,value
MKVTSEEKEQLSTAIDRMNEGLDAFIQLYNES [MB peptide],solubility,[1],≥ 2200 µM
same,pH range of switch from monomer to α-helical tetramer (increase in helicity),"[2]; 50 µM MB, 10 mM citrate or 10 mM phosphate buffer with 154 mM NaF, 20°C",6 to 5.4
same,random coil,[2]; MB monomer,~ 70%
same,ratio 208 nm / 222 nm,"[2]; pH<5.4, 50 µM MB, 20°C",0.93
same,ratio 208 nm / 222 nm,"[2]; pH>6, 50 µM MB, 20°C",2.18
same,oligomer state,"[2]; same concentration (50 µM), pH <5.4",converts completely into tetramer
same,oligomer state,[2]; up to 50 µM in phosphate buffer at pH 6.5,remains purely as monomer
same,temperature at which only monomers are present,[3],approximately 70 °C
same,consecutive incubations and regenerations with reproducible oligomerization,[4],six
